Data as given in patent US20180243421A1, “IMMUNOSTIMULATING AGENT” (AJINOMOTO CO., INC., priority 2015, published 2018).

Columns and labels:
Type in all cases: in vivo, BALB/c mice
[1] = system: anti-OVA-specific IgG2a subclass antibody; assay: Adjuvant activity: anti-OVA-specific IgG2a subclass antibody in serum after secondary immunization
Experimental: Two weeks from the secondary immunization, the whole blood was extracted under anesthesia, and the obtained serum sample was measured for anti-OVA-specific IgG1 subclass antibody.
Measurement Method of anti-OVA-specific IgG2a Subclass Antibody
To a 96 well plate was added 5 μg/ml OVA at 100 μl/well, and the mixture was incubated at 4° C. overnight. After incubation, the mixture was washed three times with 200 μl of PBS-T (PBS+0.05%(v/v) Tween 20) per well, and blocked with 100 μl of 5% FCS/PBS solution per well at room temperature for 1 to 2 hr. Thereafter, the mixture was washed three times with PBS-T (200 μl/well), a diluted serum sample (100 μl/well) or the same amount of 5% FCS/PBS solution as a control was added, and the mixture was incubated at 37° C. for 1 hr. Thereafter, the mixture was washed five times with PBS-T (200 μl/well), a diluted biotinylated anti-mouse IgG2a antibody (100 μl/well) was added, and the mixture was incubated at 37° C. for 45 min. Thereafter, the mixture was washed five times with PBS-T (200 μl/well), a diluted anti-biotin-HRP antibody was added (100 μl/well), and the mixture was incubated at 37° C. for another 30 min. Thereafter, the mixture was washed five times with PBS-T (200 μl/well), TMB substrate solution was added (100 μl/well), and the mixture was incubated at room temperature for 10-15 min. Thereafter, a reaction quenching liquid (2N sulfuric acid solution) was added (50 μl/well) to discontinue a color developing reaction, and the absorbance (OD Value=450 nm) was measured by a microplate reader.
Measurement Method of Concentration of anti-OVA-specific IgG1 Subclass Antibody and anti-OVA-specific IgG2a Subclass Antibody
To a 96 well plate was added 5 μg/ml OVA at 100 μl/well, and the mixture was incubated at 4° C. overnight. After incubation, the mixture was washed three times with 200 μl of PBS-T (PBS+0.05% (v/v) Tween 20) per well, and blocked with 100 μl of 5% FCS/PBS solution per well at room temperature for 1 to for 2 hr. […] When an anti-OVA-specific IgG2a subclass antibody was measured, the standard of an anti-OVA-specific IgG2a subclass antibody was added at 50 ng/ml, 25 ng/ml, 12,5 ng/ml, 6.25 ng/ml, 3.125 ng/ml, 1.56 ng/ml, 0.781 ng/ml, 0.391 ng/ml, 0.195 ng/ml, 0.098 ng/ml, 0.049 ng/ml, 0 ng/ml, per 1 well. […] Thereafter, a reaction quenching liquid (2N sulfuric acid solution) was added (50 μl/well) to discontinue a color developing reaction, and the absorbance (OD Value=450 nm) was measured by a microplate reader. A standard curve was drawn from the measured OD values, and the concentration was calculated.

IFN-γ = assay: Th1 response: IFN-γ production from lymph node cells of immunized mice restimulated with OVA; conditions: Example 10; s.c. OVA 10 μg + 0.256 μmol in 5% αCD saline (Addavax 1:1); groin lymph node ten days later; 0.1-100 μg OVA, 40 hr, ELISA
Experimental: (§1) Ten days later, groin lymph node was collected from all mice of the above-mentioned (1) to (4), lymph node cells were isolated and cultured in 10% FBS-containing RPMI1640 medium. Thereto was added 0.1 μg, 1 μg, 10 μg, 100 μg of OVA, respectively, 40 hr later, cell supernatant was recovered, and IFN-γ and IL-4 in the supernatant were measured by ELISA.

IL-4 = assay: Th2 response: IL-4 production from lymph node cells of immunized mice restimulated with OVA; conditions: Example 10; s.c. OVA 10 μg + 0.256 μmol in 5% αCD saline (Addavax 1:1); groin lymph node ten days later; 0.1-100 μg OVA, 40 hr, ELISA
Experimental: as §1

[2] = system: anti-OVA-specific IgG1 subclass antibody; assay: Adjuvant activity: anti-OVA-specific IgG1 subclass antibody in serum after secondary immunization (Examples 12, 19, 20, 21); conditions: Example 21; s.c.; SZ62 0.256 μmol in 5% αCD saline, CpG 5 μg, MPL 5 μg, Addavax 1:1, Alum; two weeks from secondary immunization
[3] = Example 2, serum sample of Example 1

CCCCCCCCCCCCCCCC(=O)NC(=N)NCCCCN [SZ62, N-hexadecanoylagmatine]
adjuvant activity (IgG2a) compared with Alum [1, 3]: equivalent to that of Alum
anti-OVA-specific IgG2a subclass antibody production as compared to the OVA single administration group [1, 3]: significantly increased
anti-OVA-specific IgG2a subclass antibody production as compared to the OVA single administration group ([1]; Example 21, s.c., SZ62 0.256 μmol in 5% αCD saline, CpG 5 μg, MPL 5 μg, Addavax 1:1, Alum, two weeks from secondary immunization): tended to increase
IFN-γ production from lymph node cells (IFN-γ): increased in an OVA volume dependent manner
IL-4 production from lymph node cells (IL-4): did not show an increase
anti-OVA-specific IgG1 subclass antibody production as compared to the OVA single administration group [2]: tended to increase
